# Experiments:
# [1] = test system: yeast thioredoxin (Trx)/yeast Trx reductase (TR); assay: Peroxidase activity assay (H2O2 reduction, NADPH oxidation); type: biochemical; details: 50 μM test compound, 3 μM yeast Trx, 1.5 μM yeast TR, 250 μM NADPH, 1.2 mM H2O2, 30° C.; NADPH oxidized per minute
# Method: Hydrogen peroxide (H2O2)-reducing peroxidase activity of compounds in present invention was performed as follows. Peroxyredoxin activity was measured in reaction mixture (200 μL volume) containing 50 mM HEPES buffer (pH 7.0), 1 mM EDTA, 250 μM NADPH, 3 μM yeast thioredoxin (Trx), 1.5 μM yeast Trx reductase (TR), 50 μM test compound, and 1.2 mM H2O2.
# Reaction was initiated by adding H2O2 and the decrease in absorbance at 340 nm was measured using Agilent UV8453 spectrophotometry (Hewlett Packard, USA) at 30° C. for 12 min. Initial reaction rate is the amount of NADPH oxidized per minute calculated from slope of the linear part of curve.
# The H2O2-reducing peroxidase activity of the test compounds in present invention was measured in a reaction mixture containing thioredoxin (Trx)/thioredoxin reductase (TR), respectively.
# [2] = test system: human aortic endothelial cell (HAEC); assay: VEGF-induced proliferation assay, HAEC (PrxII siRNA); type: cell-based; details: for Degree of HAEC proliferation: VEGF-A 25 ng/mL, percent of untreated control
# Method: (§1) HAECs and PAECs were transfected with a PrxII-specific siRNA using RNAi MAX transfection reagent according to manufacturer's protocol. After 24 hours, transfected cells (3,000 cells/well) were seeded in a 96-well culture plate. At 12 h after seeding, cells were serum-starved for additional 18 h in EBM basal medium containing 0.5% FBS. Test compounds were serially diluted with the same basal medium containing 0.5% FBS, added to the cells ([…]), and incubated for 2 h. After treatment, cells were placed in fresh EBM medium containing 0.5% FBS and VEGF-A (25 ng/mL) for growth factor stimulation and further cultured for 24 h.
# (§2) The degree of cell proliferation was measured using the Cell Titer-GLO kit ([…]). Data are the percent of luminescence intensity averaged from three replicate wells versus that of untreated control group.
# In human aortic endothelial cell (HAEC) and human pulmonary artery endothelial cell (PAEC) in which PrxII was knocked out by transfecting the PrxII siRNA, the ability of test compounds to augment the VEGF-induced proliferation of vascular endothelial cells was evaluated. In Table 7, the degree of proliferation in the compound-treated groups is expressed as percent of the degree of proliferation in untreated control group. The effective concentrations of test compounds increasing cell proliferation by 50% (EC50) is also listed.
# [3] = test system: Tyr 1175 phosphorylation of VEGF receptor-2 (VEGFR2) in HAEC; assay: Immunoblot of VEGF-mediated signaling in PrxII knock-down HAEC; type: cell-based, human; details: HAECs depleted of PrxII expression, FIG. 5
# Method: (§3) Cells were quickly washed in ice-cold phosphate-buffered saline (PBS) and lysed in extraction buffer containing 20 mM Hepes (pH 7.0), 1% Triton X-100, 150 mM NaCl, 10% glycerol, 1 mM EDTA, 2 mM EGTA, and 1 mM DTT, 5 mM Na3VO4, 5 mM NaF, 1 mM AEBSF, aprotinin (5 μg/mL), and leupeptin (5 μg/mL). After cen-trifugation at 12,000×g, the clarified cell extracts were used for immunoblotting. For re-blotting, the immunoblots were retrieved in a solution of 67 mM Tris (pH 6.7), 2% SDS, and 100 mM 2-mercaptoethanol at 60° C. for 30 min to remove antibodies and rinsed three times with a Tris-buffered saline (TBS) solution containing 1% Triton X-100. The retrieved membranes were subjected to new immunoblotting.
# In human aortic endothelial cell (HAEC) and human pulmonary artery endothelial cell (PAEC) in which PrxII was knocked out by transfecting the PrxII siRNA, the ability of test compounds to replace the cellular function of PrxII was evaluated. That is, the efficacy of the new compounds was verified in terms of signaling pathways induced by VEGF that regulates the growth and migration of vascular endothelial cells in the aorta and pulmonary artery. Activation of VEGF-induced signaling pathway was analyzed by an immunoblot method using an antibody that specifically recognizes phosphorylation of Tyr 1175, which is a major phosphorylation site on VEGF receptor-2 (VEGFR2).
# [4] = test system: human aortic smooth muscle cell (HASMC); assay: PDGF-induced proliferation assay, HASMC (PrxII siRNA); type: cell-based; details: for Degree of HASMC proliferation: PDGF-BB 25 ng/mL, percent of untreated control
# Method: as §1, with “HASMCs” for “HAECs”, “PASMCs” for “PAECs”, “SmBM” for “EBM”, “PDGF-BB” for “VEGF-A”
# as §2
# (§4) In human aortic smooth muscle cell (HASMC) and human pulmonary artery smooth muscle cell (PASMC) in which PrxII was knocked out by transfecting the PrxII siRNA, the ability of test compounds to inhibit the PDGF-induced proliferation of vascular smooth muscle cells was evaluated. In Table 6, the degree of proliferation in the compound-treated groups is expressed as percent of the degree of proliferation in untreated control group. The concentrations of test compounds corresponding to 50% growth inhibition (IC50) is also listed.
# [5] = Measurement of redox potential (DTT redox buffers, HPLC); type: physicochemical; details: DTT(Red)/DTT(Ox) redox buffers, 3 h, 30° C., 50% reduction of test compound
# Method: A test compound (10 mM) was diluted 20-fold with each redox buffer solution and incubated for 3 h in a 30° C. water bath. Then, compounds were analyzed by HPLC. The area of peaks corresponding to the oxidized and reduced forms of test compound based on specific retention time was calculated and plotted as percent of total peak area against the Nernst equation value (mV) at x-axis. The Nernst equation value corresponding to 50% reduction of test compound was set as the midpoint redox potential value for test compound.
# The redox potential values of the test compounds were analyzed based on the potential values established in redox buffer solutions where reduced and oxidized DTT are mixed at various ratios.
# [6] = test system: Tyr 857 phosphorylation of PDGF receptor-β (PDGFRβ) in HASMC; assay: Immunoblot of PDGF-mediated signaling in PrxII knock-down HASMC; type: cell-based, human; details: HASMC depleted of PrxII expression, FIG. 2
# Method: as §3
# In human aortic smooth muscle cell (HASMC) and human pulmonary artery smooth muscle cell (PASMC) in which PrxII was knocked out by transfecting the PrxII siRNA, the ability of test compounds to replace the cellular function of PrxII was evaluated. That is, the efficacy of the new compounds was verified in terms of signaling pathways induced by PDGF that regulates the growth and migration of vascular smooth muscle cells in the aorta and pulmonary artery. Activation of PDGF-induced signaling pathway was analyzed by an immunoblot method using an antibody that specifically recognizes phosphorylation of Tyr 857, which is a major phosphorylation site on PDGF receptor (PDGFRβ).
# [7] = test system: human pulmonary artery smooth muscle cell (PASMC); assay: PDGF-induced proliferation assay, PASMC (PrxII siRNA); type: cell-based; details: for Degree of PASMC proliferation: PDGF-BB 25 ng/mL, percent of untreated control
# Method: as §1, with “HASMCs” for “HAECs”, “PASMCs” for “PAECs”, “SmBM” for “EBM”, “PDGF-BB” for “VEGF-A”
# as §2, §4
# [8] = in vitro
molecule,measurement,setting,value
"CN1C(=O)C2(C)SSCC1C(=O)N2Cc1cn(C)cn1 (centres unmarked) [Compound 17, 1,6-dimethyl-8-((1-methyl-1H-imidazol-4-yl)methyl)-2,3-dithia-6,8-diazabicyclo[3.2.2]nonane-7,9-dione]",Peroxidase activity for H2O2 reduction,[1],4.80 nmol/min
"CC1SSC2(C)C(=O)N(Cc3ccccc3)C1C(=O)N2C (centres unmarked) [Compound 24, 6-benzyl-1,4,8-trimethyl-2,3-dithia-6,8-diazabicyclo[3.2.2]nonane-7,9-dione]",Peroxidase activity for H2O2 reduction,[1],4.26 nmol/min
"O=C1C2CSSC3(CCCN13)C(=O)N2Cc1ccncc1 (centres unmarked) [Compound 11, 11-(pyridin-4-ylmethyl)tetrahydro-5H,7H-4,9a-(epiminomethano)pyrrolo[2,1-c][1,2,4]dithiazepine-5,10-dione]",Peroxidase activity for H2O2 reduction,[1],4.57 nmol/min
"6-benzyl-1,4,8-trimethyl-2,3-dithia-6,8-diazabicyclo[3.2.2]nonane-7,9-dione [Compound 25]",Peroxidase activity for H2O2 reduction,[1],4.51 nmol/min
"CCN1C(=O)C23COCCN2C(=O)C1CSS3 (centres unmarked) [Compound 10, 12-ethyltetrahydro-5H,10H-4,10a-(epiminomethano)[1,4]oxazino[3,4-c][1,2,4]dithiaze pine-5,11-dione]",Degree of HAEC proliferation,[2]; 2.5 nM,111.6%
same,Degree of HAEC proliferation,[2]; 5 nM,122.8%
same,Degree of HAEC proliferation,[2]; 10 nM,127.6%
same,Degree of HAEC proliferation,[2]; 25 nM,140.7%
same,Degree of HAEC proliferation,[2]; 50 nM,175.1%
same,Degree of HAEC proliferation,[2]; 100 nM,159.0%
same,EC50,"[2]; Homo sapiens, Endothelial cell, effective concentration increasing cell proliferation by 50%, VEGF-stimulated",0.0193 µM
same,Effect on phosphorylation of Tyr 1175 on VEGFR2,[3],strongly abolish the phosphorylation
same,Peroxidase activity for H2O2 reduction,[1],5.06 nmol/min
same,Degree of HASMC proliferation,[4]; 2.5 nM,75.5%
same,Degree of HASMC proliferation,[4]; 5 nM,53.8%
same,Degree of HASMC proliferation,[4]; 10 nM,31.1%
same,Degree of HASMC proliferation,[4]; 25 nM,4.6%
same,IC50,"[4]; Homo sapiens, HASMC, 50% growth inhibition, PDGF-stimulated",0.00548 µM
same,Midpoint redox potential (E m),[5],−268.53 mV
same,Effect on phosphorylation of Tyr 857 on PDGFR,[6],strongly abolish the phosphorylation
same,Degree of PASMC proliferation,[7]; 2.5 nM,90.5%
same,Degree of PASMC proliferation,[7]; 5 nM,54.1%
same,Degree of PASMC proliferation,[7]; 10 nM,44.1%
same,Degree of PASMC proliferation,[7]; 25 nM,21.9%
same,Degree of PASMC proliferation,[7]; 50 nM,17.5%
same,Degree of PASMC proliferation,[7]; 100 nM,7.0%
same,IC50,"[7]; Homo sapiens, PASMC, 50% growth inhibition, PDGF-stimulated",0.00828 µM
"COc1cc(CN2C(=O)C3(C)SSCC2C(=O)N3C)cc(OC)c1OC (centres unmarked) [Compound 3, 1,8-dimethyl-6-(3,4,5-trimethoxybenzyl)-2,3-dithia-6,8-diazabicyclo[3.2.2]nonane-7,9-dione]",Peroxidase activity for H2O2 reduction,[1],4.11 nmol/min
same,CC50,[8],82.6 µM
same,Midpoint redox potential (E m),[5],−296 mV
CN1C(=O)C2CSSC1(C)C(=O)N2Cc1ccc(F)cc1F (centres unmarked) [Compound 4],Peroxidase activity for H2O2 reduction,[1],3.82 nmol/min
same,CC50,[8],98 µM
same,Midpoint redox potential (E m),[5],−292.74 mV
"O=C1C2CSSC3(COCCN13)C(=O)N2Cc1ccncc1 (centres unmarked) [Compound 9, 12-(pyridin-4-ylmethyl)tetrahydro-5H,10H-4,10a-(epiminomethano)[1,4]oxazino[3,4-c][1,2,4]dithiazepin-5,11-dione]",Peroxidase activity for H2O2 reduction,[1],5.19 nmol/min
"COC(=O)c1ccc(CN2C(=O)C3CSSC2(C)C(=O)N3C)cc1 (centres unmarked) [Compound 18, Methyl 4-((1,6-dimethyl-7,9-dioxo-2,3-dithia-6,8-diazabicyclo[3.2.2]nonan-8-yl)methyl)benzo ate]",Peroxidase activity for H2O2 reduction,[1],4.91 nmol/min
CN1CCN2C(=O)C3CSSC2(C1)C(=O)N3Cc1ccncc1 (centres unmarked) [Compound 22],Peroxidase activity for H2O2 reduction,[1],7.97 nmol/min
same,Effect on phosphorylation of Tyr 857 on PDGFR,[6],strongly abolish the phosphorylation
"CN1C(=O)C2(C)SSCC1C(=O)N2Cc1ncccn1 (centres unmarked) [Compound 16, 1,6-dimethyl-8-(pyrimidin-2-ylmethyl)-2,3-dithia-6,8-diazabicyclo[3.2.2]nonane-7,9-d ione]",Peroxidase activity for H2O2 reduction,[1],4.93 nmol/min
